Experiment [1] concerns the target CDK3/Cyclin E (Homo sapiens) (UniProt P24864+Q00526). In words: Inhibition of N-terminal GST-tagged full length human CDK3 (1 to 305 residues)/N-terminal GST-tagged human CyclinE1 (1 to 410 residues) expressed in baculovirus-infected Sf21 cells using Modified Histone H1 as substrate at 1 uM in presence of ATP by Mobility shift assay.
For experiment [2], the target named is cGMP-dependent protein kinase 1 (Homo sapiens) (UniProt Q13976). Kind of experiment: Inhibition of N-terminal GST-fused human full length […] (1 to 686 residues) expressed in baculovirus expression system using Kemptide as substrate at 1 uM in presence of ATP by Mobility shift assay.
The target of experiment [3] is Tyrosine-protein kinase ABL2 (Homo sapiens) (UniProt P42684). Kind of experiment: Inhibition of N-terminal GST-fused truncated human ARG (2 to 52, 74 to 1182 residues) expressed in baculovirus-infected Sf21 cells using ABLtide as substrate at 1 uM in presence of ATP by Mobility shift assay.
Experiment [4] has as its target Testis-specific serine/threonine-protein kinase 1 (Homo sapiens) (UniProt Q9BXA7). In words: Inhibition of N-terminal GST-fused full length human TSSK1 (1 to 367 residues) expressed in baculovirus expression system using GS peptide as substrate at 1 uM in presence of ATP by Mobility shift assay.
Experiment [5] deals with Interleukin-1 receptor-associated kinase 4 (Homo sapiens) (UniProt Q9NWZ3). In words: Inhibition of N-terminal GST-fused full length human IRAK4 (1 to 460 residues) expressed in baculovirus expression system using IRAK1 peptide as substrate at 1 uM in presence of ATP by Mobility shift assay.
In experiment [6] the target is Testis-specific serine/threonine-protein kinase 3 (Homo sapiens) (UniProt Q96PN8). Kind of experiment: Inhibition of N-terminal GST-fused full length human TSSK3 (2 to 268 residues) expressed in baculovirus expression system using GS peptide as substrate at 1 uM in presence of ATP by Mobility shift assay.
The target of experiment [7] is Casein kinase I isoform gamma-3 (Homo sapiens) (UniProt Q9Y6M4). Kind of experiment: Inhibition of N-terminal GST-fused full length human CK1gamma3 (1 to 447 residues) expressed in baculovirus expression system using CKtide as substrate at 1 uM in presence of ATP by Mobility shift assay.
The target of experiment [8] is Serine/threonine-protein kinase 4 (Homo sapiens) (UniProt Q13043). In words: Inhibition of N-terminal GST-fused full length human MST1 (1 to 487 residues) expressed in baculovirus expression system using IRS1 as substrate at 1 uM in presence of ATP by Mobility shift assay.
The target in experiment [9] is Ephrin type-A receptor 1 (Homo sapiens) (UniProt P21709). In words: Inhibition of N-terminal GST-fused human EPHA1 cytoplasmic domain (586 to 976 residues) expressed in baculovirus-infected Sf21 cells using Blk/Lyntide as substrate at 1 uM in presence of ATP by Mobility shift assay.
Experiment [10] deals with Serine/threonine-protein kinase MARK1 (Homo sapiens) (UniProt Q9P0L2). Kind of experiment: Inhibition of N-terminal GST-fused full length human MARK1 (1 to 795 residues) expressed in baculovirus expression system using CHKtide as substrate at 1 uM in presence of ATP by Mobility shift assay.
Experiment [11] deals with MAP kinase-activated protein kinase 5 (Homo sapiens) (UniProt Q8IW41). Kind of experiment: Inhibition of N-terminal GST-fused full length human MAPKAPK5 (1 to 471 residues) expressed in baculovirus expression system using GS peptide as substrate at 1 uM in presence of ATP by Mobility shift assay.
Experiment [12] concerns the target Proto-oncogene tyrosine-protein kinase Src (Homo sapiens) (UniProt P12931). Kind of experiment: Inhibition of N-terminal GST-tagged full length human SRC (1 to 536 residues) expressed in baculovirus-infected Sf21 cells using Srctide as substrate at 1 uM in presence of ATP by Mobility shift assay.
The target in experiment [13] is Tyrosine-protein kinase Fer (Homo sapiens) (UniProt P16591). Kind of experiment: Inhibition of N-terminal GST-fused full length human FER (1 to 822 residues) expressed in baculovirus-infected Sf21 cells using Srctide as substrate at 1 uM in presence of ATP by Mobility shift assay.
Experiment [14] concerns the target Serine/threonine-protein kinase MRCK alpha (Homo sapiens) (UniProt Q5VT25). Kind of experiment: Inhibition of N-terminal GST-fused truncated human MRCKalpha (1 to 574 residues) expressed in baculovirus expression system using DAPK1tide as substrate at 1 uM in presence of ATP by Mobility shift assay.
The target of experiment [15] is Tyrosine-protein kinase ABL1 (Homo sapiens) (UniProt P00519). Kind of experiment: Inhibition of N-terminal His-tagged wild type human ABL (2 to 1130 residues) expressed in baculovirus-infected Sf21 cells using ABLtide as substrate at 1 uM in presence of ATP by Mobility shift assay.
Experiment [16] concerns the target Fibroblast growth factor receptor 3 (Homo sapiens) (UniProt P22607). In words: Inhibition of N-terminal GST-fused human FGFR3 cytoplasmic domain (436 to 806 residues) expressed in baculovirus-infected Sf21 cells using CSKtide as substrate at 1 uM in presence of ATP by Mobility shift assay.
The target of experiment [17] is Serine/threonine-protein kinase BRSK1 (Homo sapiens) (UniProt Q8TDC3). Kind of experiment: Inhibition of N-terminal GST-tagged full length human BRSK1 (1 to 778 residues) expressed in baculovirus-infected Sf21 cells using CHKtide as substrate at 1 uM in presence of ATP by Mobility shift assay.
Experiment [18] deals with Calcium/calmodulin-dependent protein kinase type II subunit gamma (Homo sapiens) (UniProt Q13555). In words: Inhibition of N-terminal GST-tagged full length human CAMK2g (1 to 518 residues) expressed in baculovirus-infected Sf21 cells using GS peptide as substrate at 1 uM in presence of ATP by Mobility shift assay.
Experiment [19] concerns the target NUAK family SNF1-like kinase 2 (Homo sapiens) (UniProt Q9H093). Kind of experiment: Inhibition of N-terminal GST-fused full length human Nuak2 (1 to 628 residues) expressed in baculovirus expression system using CHKtide as substrate at 1 uM in presence of ATP by Mobility shift assay.
For experiment [20], the target named is Inhibitor of nuclear factor kappa-B kinase subunit epsilon (Homo sapiens) (UniProt Q14164). In words: Inhibition of N-terminal GST-fused full length human IKK-epsilon(1 to 716 residues) expressed in baculovirus expression system using IkBalpha peptide as substrate at 1 uM in presence of ATP by Mobility shift assay.
Experiment [21] addresses Serine/threonine-protein kinase 38-like (Homo sapiens) (UniProt Q9Y2H1). In words: Inhibition of N-terminal GST-fused full length human NDR2 (1 to 464 residues) expressed in baculovirus expression system using SGKtide as substrate at 1 uM in presence of ATP by Mobility shift assay.
In experiment [22] the target is Casein kinase I isoform gamma-1 (Homo sapiens) (UniProt Q9HCP0). In words: Inhibition of N-terminal GST-fused full length human CK1gamma1 (1 to 422 residues) expressed in baculovirus expression system using CKtide as substrate at 1 uM in presence of ATP by Mobility shift assay.

One may read the inhibition as the drop in the measured response relative to a control, in per cent.

Sequence of Serine/threonine-protein kinase MRCK alpha (Homo sapiens) (Q5VT25 whole entry, the tested form may be a part): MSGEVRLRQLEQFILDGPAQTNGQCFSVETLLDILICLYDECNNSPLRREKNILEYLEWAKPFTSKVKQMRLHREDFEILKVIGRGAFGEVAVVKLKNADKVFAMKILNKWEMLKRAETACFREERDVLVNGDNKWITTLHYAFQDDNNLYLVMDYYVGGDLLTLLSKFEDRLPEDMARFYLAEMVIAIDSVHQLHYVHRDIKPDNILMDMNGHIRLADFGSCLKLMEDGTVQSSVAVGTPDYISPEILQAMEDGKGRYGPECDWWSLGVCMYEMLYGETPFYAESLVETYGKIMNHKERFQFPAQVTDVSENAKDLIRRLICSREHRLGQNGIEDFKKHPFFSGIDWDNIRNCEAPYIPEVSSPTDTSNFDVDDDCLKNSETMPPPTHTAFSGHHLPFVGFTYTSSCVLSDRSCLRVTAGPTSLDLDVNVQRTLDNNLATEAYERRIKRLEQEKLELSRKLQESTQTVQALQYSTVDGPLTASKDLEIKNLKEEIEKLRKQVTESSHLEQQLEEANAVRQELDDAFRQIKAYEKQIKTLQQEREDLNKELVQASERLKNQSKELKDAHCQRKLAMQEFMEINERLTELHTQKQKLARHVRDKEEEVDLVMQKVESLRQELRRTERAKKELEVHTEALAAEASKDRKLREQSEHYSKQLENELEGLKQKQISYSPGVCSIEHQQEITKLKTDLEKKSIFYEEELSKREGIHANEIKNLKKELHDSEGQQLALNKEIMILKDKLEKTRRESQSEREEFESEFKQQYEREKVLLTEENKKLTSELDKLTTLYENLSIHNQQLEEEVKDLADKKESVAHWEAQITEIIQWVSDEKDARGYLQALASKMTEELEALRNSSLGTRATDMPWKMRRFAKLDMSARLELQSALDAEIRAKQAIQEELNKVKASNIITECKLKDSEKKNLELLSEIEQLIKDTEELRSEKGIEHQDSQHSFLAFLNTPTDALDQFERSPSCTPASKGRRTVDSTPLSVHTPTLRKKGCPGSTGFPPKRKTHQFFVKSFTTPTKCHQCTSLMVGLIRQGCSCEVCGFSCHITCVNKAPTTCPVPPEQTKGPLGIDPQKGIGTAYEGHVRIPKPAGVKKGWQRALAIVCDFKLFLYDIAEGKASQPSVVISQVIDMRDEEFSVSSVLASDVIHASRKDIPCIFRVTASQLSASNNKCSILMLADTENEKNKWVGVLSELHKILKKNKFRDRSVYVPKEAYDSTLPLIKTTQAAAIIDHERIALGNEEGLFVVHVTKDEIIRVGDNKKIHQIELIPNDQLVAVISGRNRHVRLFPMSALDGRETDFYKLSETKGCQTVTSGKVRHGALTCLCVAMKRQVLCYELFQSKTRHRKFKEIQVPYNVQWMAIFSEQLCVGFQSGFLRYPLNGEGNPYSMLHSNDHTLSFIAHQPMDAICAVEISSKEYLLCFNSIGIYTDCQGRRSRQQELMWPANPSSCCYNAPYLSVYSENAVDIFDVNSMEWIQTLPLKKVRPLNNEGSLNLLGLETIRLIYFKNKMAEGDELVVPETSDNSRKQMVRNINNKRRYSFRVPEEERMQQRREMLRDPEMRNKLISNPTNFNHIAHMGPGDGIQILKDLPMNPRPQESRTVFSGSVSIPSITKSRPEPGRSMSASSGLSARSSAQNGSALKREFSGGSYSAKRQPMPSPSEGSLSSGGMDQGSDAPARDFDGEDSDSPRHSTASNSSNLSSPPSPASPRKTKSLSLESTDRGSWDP
Sequence of Calcium/calmodulin-dependent protein kinase type II subunit gamma (Homo sapiens) (Q13555 whole entry, the tested form may be a part): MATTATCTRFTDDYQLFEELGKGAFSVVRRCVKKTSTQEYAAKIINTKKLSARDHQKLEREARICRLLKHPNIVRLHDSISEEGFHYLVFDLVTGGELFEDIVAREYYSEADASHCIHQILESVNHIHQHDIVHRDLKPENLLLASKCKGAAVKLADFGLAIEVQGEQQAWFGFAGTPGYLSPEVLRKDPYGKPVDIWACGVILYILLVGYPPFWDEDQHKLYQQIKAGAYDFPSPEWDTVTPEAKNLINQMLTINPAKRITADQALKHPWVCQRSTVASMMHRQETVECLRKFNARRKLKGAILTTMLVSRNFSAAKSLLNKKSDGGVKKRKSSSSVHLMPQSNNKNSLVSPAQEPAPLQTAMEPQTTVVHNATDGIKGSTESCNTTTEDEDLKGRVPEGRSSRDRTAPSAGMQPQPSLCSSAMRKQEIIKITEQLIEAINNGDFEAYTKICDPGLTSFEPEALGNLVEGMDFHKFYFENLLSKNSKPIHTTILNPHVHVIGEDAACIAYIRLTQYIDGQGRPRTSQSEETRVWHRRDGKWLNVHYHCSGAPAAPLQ
Sequence of MAP kinase-activated protein kinase 5 (Homo sapiens) (Q8IW41 whole entry, the tested form may be a part): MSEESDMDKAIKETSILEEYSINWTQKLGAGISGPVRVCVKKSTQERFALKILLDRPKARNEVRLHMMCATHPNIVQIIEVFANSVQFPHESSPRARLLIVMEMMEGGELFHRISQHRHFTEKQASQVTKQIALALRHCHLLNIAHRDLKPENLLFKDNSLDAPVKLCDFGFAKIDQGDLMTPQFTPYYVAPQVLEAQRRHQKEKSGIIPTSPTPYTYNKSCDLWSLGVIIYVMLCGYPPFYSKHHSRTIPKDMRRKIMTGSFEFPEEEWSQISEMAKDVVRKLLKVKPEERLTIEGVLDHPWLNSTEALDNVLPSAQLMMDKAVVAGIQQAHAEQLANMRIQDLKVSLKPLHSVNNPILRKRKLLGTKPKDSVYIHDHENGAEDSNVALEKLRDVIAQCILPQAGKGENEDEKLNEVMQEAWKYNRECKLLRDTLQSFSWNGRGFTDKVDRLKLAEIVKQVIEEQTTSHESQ
Sequence of Serine/threonine-protein kinase MARK1 (Homo sapiens) (Q9P0L2 whole entry, looked up, the tested form may be a part): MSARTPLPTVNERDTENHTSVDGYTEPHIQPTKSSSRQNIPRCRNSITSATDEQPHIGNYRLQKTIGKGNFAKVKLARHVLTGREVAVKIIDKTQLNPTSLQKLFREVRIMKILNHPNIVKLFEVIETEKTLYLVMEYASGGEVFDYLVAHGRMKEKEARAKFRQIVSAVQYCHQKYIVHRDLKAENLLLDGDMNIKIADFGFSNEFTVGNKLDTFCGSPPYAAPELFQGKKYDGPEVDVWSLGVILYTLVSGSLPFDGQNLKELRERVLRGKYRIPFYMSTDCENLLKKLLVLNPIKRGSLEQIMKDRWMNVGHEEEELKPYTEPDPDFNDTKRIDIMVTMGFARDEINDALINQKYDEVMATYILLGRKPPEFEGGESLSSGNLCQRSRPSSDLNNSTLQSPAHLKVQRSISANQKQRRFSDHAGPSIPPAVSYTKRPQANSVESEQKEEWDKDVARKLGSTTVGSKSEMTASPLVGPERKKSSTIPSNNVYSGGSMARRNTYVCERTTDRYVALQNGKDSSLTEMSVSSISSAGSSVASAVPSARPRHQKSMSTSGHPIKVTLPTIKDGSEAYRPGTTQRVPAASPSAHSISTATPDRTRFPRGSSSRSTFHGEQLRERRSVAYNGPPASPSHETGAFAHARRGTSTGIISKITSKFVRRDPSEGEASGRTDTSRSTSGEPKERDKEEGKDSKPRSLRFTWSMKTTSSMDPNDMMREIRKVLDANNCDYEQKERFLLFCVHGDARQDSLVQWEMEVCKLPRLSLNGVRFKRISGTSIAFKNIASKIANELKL
Sequence of Casein kinase I isoform gamma-1 (Homo sapiens) (Q9HCP0 whole entry, looked up, the tested form may be a part, canonical isoform): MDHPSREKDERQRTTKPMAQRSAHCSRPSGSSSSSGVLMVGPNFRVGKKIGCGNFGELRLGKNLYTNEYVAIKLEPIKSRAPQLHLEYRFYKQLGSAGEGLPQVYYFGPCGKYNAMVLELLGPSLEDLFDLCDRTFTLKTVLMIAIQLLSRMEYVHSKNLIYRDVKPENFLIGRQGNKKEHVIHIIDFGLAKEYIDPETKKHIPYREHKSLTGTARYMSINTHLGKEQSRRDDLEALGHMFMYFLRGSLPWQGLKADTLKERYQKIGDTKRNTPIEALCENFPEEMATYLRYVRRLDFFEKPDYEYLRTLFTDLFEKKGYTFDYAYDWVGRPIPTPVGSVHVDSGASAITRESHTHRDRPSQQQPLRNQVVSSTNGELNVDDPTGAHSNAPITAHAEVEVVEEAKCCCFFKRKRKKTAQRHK
Sequence of Testis-specific serine/threonine-protein kinase 1 (Homo sapiens) (Q9BXA7 whole entry, the tested form may be a part): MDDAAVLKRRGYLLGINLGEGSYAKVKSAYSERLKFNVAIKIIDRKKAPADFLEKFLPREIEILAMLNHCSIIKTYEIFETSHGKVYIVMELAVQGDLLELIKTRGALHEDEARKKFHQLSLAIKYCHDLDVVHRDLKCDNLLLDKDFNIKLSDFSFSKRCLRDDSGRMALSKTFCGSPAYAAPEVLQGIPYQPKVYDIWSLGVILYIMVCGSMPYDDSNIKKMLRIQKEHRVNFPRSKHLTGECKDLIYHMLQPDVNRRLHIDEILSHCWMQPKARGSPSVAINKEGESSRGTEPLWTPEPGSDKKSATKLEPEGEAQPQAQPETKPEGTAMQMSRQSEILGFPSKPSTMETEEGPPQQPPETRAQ
Sequence of Serine/threonine-protein kinase 4 (Homo sapiens) (Q13043 whole entry, the tested form may be a part): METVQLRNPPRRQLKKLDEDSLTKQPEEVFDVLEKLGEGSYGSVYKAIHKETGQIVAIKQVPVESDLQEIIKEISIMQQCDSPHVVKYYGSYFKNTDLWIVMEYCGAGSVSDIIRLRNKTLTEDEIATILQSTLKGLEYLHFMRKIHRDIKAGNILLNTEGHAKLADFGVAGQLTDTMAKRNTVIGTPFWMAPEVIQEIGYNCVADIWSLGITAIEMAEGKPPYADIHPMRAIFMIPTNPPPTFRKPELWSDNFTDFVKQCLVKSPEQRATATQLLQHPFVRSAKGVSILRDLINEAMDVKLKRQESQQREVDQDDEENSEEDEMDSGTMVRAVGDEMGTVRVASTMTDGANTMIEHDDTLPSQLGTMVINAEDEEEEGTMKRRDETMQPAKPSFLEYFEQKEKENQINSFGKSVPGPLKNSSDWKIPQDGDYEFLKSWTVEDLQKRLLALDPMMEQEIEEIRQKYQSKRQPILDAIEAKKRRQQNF

For `Cc1cc(C)c(CNC(=O)c2cc(Br)c3c(c2C)O[C@@](C)([C@H]2CC[C@H](N(C)C)CC2)O3)c(=O)[nH]1`, the inhibition in [1] was -1%; in experiment [2], -4.3%; in [3], -7.4%; in experiment [4], -2.6%; in experiment [5], -5.6%; in [6], 12.1%. The inhibition is 1.1% in [7]; -2.7% in experiment [8]; -2.8% in experiment [9]; -4.5% in [10]; -3.1% in experiment [11]; -4.9% in experiment [12]. The inhibition is 0.1% in experiment [13]; 2.7% in experiment [14]; -5.7% in experiment [15]; -1.9% in experiment [16]; -1.9% in experiment [17]; -4.8% in [18]. Also, the inhibition in experiment [19] is -4%; in experiment [20], -5.6%; in [21] it was -2.4%; in [22], 0.5%.
For `Cc1cc(C)c(CNC(=O)c2cc(Cl)c3c(c2C)O[C@@](C)([C@H]2CC[C@H](N(C)C)CC2)O3)c(=O)[nH]1` [VALEMETOSTAT], the inhibition was -0.2% in experiment [1]; -2.1% in experiment [2]; -8.7% in experiment [3]; -4.9% in [4]; -4.1% in experiment [5]; 7.3% in [6]. The inhibition in experiment [7] was 0.5%; in [8], -1.9%; in [9], -1.6%; in [10] it was -7.1%; in [11] it was -5.7%; in experiment [12], -7.6%. Also, the inhibition was -3.7% in [13]; 0.8% in experiment [14]; -8% in [15]; -2.3% in [16]; -3.6% in [17]; -5.4% in experiment [18]. Moreover, the inhibition was 2.1% in experiment [19], -2.8% in experiment [20], -1.3% in [21] and -1.8% in experiment [22].

The record behind these values is ChEMBL document CHEMBL5647694, “Novel orally bioavailable EZH1/2 dual inhibitors with greater antitumor efficacy than an EZH2 selective inhibitor” (Cancer Sci, 2017).
